# Calls of active or inactive are those of the source. The calls are words filed in the database; no cut-off is given here.
# Legend:
# [1] = system: Saccharomyces cerevisiae; assay: Antifungal activity against Saccharomyces cerevisiae assessed as growth inhibition measured every 4 hrs; type: functional
# [2] = system: Pseudomonas putida; assay: Antibacterial activity against Pseudomonas putida ATCC 12633 at <50 ug/ml measured every 1 hr; type: functional, organism-based
# [3] = system: Bacillus subtilis; assay: Antibacterial activity against Bacillus subtilis ATCC 23857 at <50 ug/ml measured every 1 hr; type: functional, organism-based
# [4] = target: DNA topoisomerase 2-alpha (Homo sapiens, UniProt P11388); assay: Inhibition of topoisomerase-2 (unknown origin)
# [5] = Inhibition of DNA gyrase (unknown origin)-mediated DNA relaxation
# [6] = Inhibition of DNA gyrase (unknown origin)-mediated DNA supercoiling
# DNA topoisomerase 2-alpha, sequence (P11388 whole entry): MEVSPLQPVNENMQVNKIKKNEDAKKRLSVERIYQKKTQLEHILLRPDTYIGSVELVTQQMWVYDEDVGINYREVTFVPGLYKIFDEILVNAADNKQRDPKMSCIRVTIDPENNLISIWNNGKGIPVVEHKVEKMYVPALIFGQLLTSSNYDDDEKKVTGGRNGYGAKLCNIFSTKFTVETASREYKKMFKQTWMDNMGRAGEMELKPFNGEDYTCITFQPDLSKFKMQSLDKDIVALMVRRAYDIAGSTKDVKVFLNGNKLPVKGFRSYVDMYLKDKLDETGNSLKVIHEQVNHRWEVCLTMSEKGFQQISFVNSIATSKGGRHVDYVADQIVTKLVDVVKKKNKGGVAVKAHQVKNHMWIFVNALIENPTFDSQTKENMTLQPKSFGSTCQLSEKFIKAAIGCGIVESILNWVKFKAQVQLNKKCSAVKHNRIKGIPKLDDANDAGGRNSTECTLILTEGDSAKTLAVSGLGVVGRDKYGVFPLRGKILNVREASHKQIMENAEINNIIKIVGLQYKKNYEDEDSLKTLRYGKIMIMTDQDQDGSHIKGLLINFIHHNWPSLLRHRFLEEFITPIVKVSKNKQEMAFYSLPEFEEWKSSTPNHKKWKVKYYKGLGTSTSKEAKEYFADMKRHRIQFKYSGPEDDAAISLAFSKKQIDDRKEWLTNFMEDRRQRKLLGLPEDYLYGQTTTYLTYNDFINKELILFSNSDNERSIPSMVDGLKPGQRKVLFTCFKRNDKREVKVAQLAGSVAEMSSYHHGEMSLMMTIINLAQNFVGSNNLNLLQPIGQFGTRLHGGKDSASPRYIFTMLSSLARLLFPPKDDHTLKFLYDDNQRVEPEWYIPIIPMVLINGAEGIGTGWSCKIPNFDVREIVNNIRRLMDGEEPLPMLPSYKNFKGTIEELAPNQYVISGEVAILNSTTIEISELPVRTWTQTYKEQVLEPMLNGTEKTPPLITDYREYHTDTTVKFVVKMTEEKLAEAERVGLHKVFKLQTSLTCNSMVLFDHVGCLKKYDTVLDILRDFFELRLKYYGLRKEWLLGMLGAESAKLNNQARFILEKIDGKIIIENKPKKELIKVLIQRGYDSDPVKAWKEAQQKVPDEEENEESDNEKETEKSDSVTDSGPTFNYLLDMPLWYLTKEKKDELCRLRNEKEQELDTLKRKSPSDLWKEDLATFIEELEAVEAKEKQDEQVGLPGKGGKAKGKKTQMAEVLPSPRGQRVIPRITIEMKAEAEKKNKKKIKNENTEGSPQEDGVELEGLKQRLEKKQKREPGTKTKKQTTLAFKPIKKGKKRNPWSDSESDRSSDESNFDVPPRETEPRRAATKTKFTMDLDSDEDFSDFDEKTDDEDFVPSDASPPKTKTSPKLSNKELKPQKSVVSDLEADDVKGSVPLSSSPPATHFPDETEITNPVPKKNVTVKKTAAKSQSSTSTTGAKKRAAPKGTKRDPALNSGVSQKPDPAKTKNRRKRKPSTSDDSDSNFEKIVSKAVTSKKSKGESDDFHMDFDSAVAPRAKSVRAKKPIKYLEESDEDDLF
Molecule,MIC [1] [µg/mL],Activity [2],Activity [3],IC50 [4] [µM],IC50 [5] [µg/mL],IC50 [6] [µg/mL]
NYSTATIN,< 5,,,,,
Cc1c(O)cc(C[C@@H](O)C[C@H](O)CCCCCCCO)oc1=O,,inactive,inactive,,,
Cc1c(O)cc(C[C@@H](O)CCCCCCCO)oc1=O,,inactive,inactive,,,
C[C@@H](O)CCCCC[C@H]1Cc2cc(O)c(C(=O)O)c(O)c2[C@@H](O)O1,100,inactive,inactive,,,
O=C(O)c1c(O)cc2c(c1O)[C@@H](O)O[C@@H](CCCCCCCO)C2,100,inactive,inactive,,,
O=C(O)c1c(O)cc2c(c1O)CO[C@@H](CCCCCCCO)C2,100,inactive,inactive,,,
C[C@@H](O)CCCCC[C@H]1Cc2cc(O)c(C(=O)O)c(O)c2CO1,100,inactive,inactive,,,
CCCCCCC[C@H]1Cc2cc(O)c(C(=O)O)c(O)c2[C@@H](O)O1,,,,3.08,9,6
CCCCCCC[C@@H](O)C[C@H](O)Cc1cc(O)c(C)c(=O)o1,,inactive,inactive,,,
